Experimental data: ChEMBL document CHEMBL3132769, “Fragment growing to retain or alter the selectivity of anchored kinase hinge-binding fragments” (Medchemcomm, 2014)

Assays:
[1] = biological target: Tyrosine-protein kinase Lck (Homo sapiens) (UniProt P06239); experiment: Inhibition of human full length LCK expressed in baculovirus assessed as substrate phosphorylation using fluorescence-labelled peptides as substrate at 0.2 uM after 90 mins by microfluidic peptide phosphorylation assay
[2] = biological target: Protein kinase C eta type (Homo sapiens) (UniProt P24723); experiment: Inhibition of human truncated PKC eta expressed in baculovirus assessed as substrate phosphorylation using fluorescence-labelled peptides as substrate at 0.2 uM after 90 mins by microfluidic peptide phosphorylation assay
[3] = tested on: T1, Receptor-type tyrosine-protein kinase FLT3 (Homo sapiens), P36888 [D835Y]; experiment: Inhibition of human FLT3 D835Y mutant catalytic domain expressed in baculovirus assessed as substrate phosphorylation using fluorescence-labelled peptides as substrate at 420 uM after 90 mins by microfluidic peptide phosphorylation assay
T1 sequence (whole entry): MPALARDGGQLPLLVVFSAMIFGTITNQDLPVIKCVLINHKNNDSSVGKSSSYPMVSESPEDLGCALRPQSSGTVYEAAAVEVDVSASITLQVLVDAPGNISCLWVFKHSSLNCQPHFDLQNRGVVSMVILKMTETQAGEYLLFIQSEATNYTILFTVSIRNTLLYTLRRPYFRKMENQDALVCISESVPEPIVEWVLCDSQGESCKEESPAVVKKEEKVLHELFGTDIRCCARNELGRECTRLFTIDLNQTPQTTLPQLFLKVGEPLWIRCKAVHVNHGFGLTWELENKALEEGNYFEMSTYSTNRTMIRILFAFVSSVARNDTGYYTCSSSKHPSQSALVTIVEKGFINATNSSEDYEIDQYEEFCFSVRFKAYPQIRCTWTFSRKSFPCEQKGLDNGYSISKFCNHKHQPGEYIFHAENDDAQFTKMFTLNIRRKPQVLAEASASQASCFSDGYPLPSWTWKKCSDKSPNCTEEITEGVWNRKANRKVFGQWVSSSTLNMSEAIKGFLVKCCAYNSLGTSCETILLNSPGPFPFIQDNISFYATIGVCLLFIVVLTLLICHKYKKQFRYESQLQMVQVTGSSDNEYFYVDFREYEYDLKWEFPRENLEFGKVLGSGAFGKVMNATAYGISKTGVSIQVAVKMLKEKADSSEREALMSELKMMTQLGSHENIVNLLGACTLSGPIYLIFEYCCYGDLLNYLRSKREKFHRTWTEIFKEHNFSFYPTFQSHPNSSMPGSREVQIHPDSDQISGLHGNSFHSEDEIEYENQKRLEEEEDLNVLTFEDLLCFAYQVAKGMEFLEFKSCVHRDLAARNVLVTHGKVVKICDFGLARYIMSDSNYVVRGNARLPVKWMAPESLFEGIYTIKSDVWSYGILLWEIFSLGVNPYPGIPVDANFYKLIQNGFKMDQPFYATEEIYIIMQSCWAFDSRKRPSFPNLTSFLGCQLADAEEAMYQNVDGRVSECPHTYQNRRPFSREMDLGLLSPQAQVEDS

[4] = tested on: T1, Receptor-type tyrosine-protein kinase FLT3 (Homo sapiens), P36888 [D835Y]; experiment: Inhibition of human FLT3 D835Y mutant catalytic domain expressed in baculovirus assessed as substrate phosphorylation using fluorescence-labelled peptides as substrate at 0.1 uM after 90 mins by microfluidic peptide phosphorylation assay
[5] = biological target: MAP kinase-activated protein kinase 3 (Homo sapiens) (UniProt Q16644); experiment: Inhibition of human full length MAPKAPK3 expressed in Escherichia coli cell assessed as substrate phosphorylation using fluorescence-labelled peptides as substrate at […] after 90 mins by microfluidic peptide phosphorylation assay
[6] = biological target: Protein kinase C eta type (Homo sapiens) (UniProt P24723); experiment: Inhibition of human truncated PKC eta expressed in baculovirus assessed as substrate phosphorylation using fluorescence-labelled peptides as substrate at […] after 90 mins by microfluidic peptide phosphorylation assay
[7] = biological target: T2, Inhibitor of nuclear factor kappa-B kinase subunit beta (Homo sapiens) (UniProt O14920); experiment: Inhibition of human full length IKK beta expressed in baculovirus assessed as substrate phosphorylation using fluorescence-labelled peptides as substrate at 8 uM after 90 mins by microfluidic peptide phosphorylation assay
T2 sequence (whole entry): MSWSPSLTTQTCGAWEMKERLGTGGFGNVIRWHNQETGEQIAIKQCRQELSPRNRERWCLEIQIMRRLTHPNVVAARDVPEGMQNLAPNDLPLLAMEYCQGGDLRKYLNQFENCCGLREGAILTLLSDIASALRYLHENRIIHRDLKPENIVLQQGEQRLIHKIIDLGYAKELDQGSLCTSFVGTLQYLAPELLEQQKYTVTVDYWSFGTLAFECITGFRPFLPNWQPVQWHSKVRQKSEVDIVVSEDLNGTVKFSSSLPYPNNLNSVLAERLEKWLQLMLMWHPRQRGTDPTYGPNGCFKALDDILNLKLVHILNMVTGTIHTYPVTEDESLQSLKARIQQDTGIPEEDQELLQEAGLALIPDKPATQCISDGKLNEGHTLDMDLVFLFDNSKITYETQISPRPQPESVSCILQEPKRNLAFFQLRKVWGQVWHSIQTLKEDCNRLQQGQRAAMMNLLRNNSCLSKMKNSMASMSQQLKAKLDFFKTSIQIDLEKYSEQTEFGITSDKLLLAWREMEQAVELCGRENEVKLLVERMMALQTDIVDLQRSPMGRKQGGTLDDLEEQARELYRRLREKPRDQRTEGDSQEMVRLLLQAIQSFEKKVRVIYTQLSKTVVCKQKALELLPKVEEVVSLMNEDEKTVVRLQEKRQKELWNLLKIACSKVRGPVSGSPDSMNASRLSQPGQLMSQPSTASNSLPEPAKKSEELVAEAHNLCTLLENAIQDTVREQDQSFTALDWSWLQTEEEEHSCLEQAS

[8] = biological target: Tyrosine-protein kinase Lck (Homo sapiens) (UniProt P06239); experiment: Inhibition of human full length LCK expressed in baculovirus assessed as substrate phosphorylation using fluorescence-labelled peptides as substrate at 70 uM after 90 mins by microfluidic peptide phosphorylation assay

Chain of Tyrosine-protein kinase Lck (Homo sapiens) (P06239 2-509 limits assumed): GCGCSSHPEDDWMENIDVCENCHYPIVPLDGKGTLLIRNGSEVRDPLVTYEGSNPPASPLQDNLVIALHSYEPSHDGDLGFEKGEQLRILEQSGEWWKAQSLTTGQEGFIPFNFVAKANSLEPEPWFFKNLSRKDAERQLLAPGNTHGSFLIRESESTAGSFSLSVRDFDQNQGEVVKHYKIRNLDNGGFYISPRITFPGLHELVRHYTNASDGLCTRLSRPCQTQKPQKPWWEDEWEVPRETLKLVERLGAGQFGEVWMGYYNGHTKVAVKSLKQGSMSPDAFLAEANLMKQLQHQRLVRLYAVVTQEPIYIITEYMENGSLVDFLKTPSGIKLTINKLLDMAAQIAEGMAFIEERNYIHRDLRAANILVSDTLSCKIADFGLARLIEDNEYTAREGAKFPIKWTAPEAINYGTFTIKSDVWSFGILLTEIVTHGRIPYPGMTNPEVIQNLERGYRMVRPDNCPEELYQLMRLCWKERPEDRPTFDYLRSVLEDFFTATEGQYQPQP
Chain of Protein kinase C eta type (Homo sapiens) (P24723 whole entry, the tested form may be a part): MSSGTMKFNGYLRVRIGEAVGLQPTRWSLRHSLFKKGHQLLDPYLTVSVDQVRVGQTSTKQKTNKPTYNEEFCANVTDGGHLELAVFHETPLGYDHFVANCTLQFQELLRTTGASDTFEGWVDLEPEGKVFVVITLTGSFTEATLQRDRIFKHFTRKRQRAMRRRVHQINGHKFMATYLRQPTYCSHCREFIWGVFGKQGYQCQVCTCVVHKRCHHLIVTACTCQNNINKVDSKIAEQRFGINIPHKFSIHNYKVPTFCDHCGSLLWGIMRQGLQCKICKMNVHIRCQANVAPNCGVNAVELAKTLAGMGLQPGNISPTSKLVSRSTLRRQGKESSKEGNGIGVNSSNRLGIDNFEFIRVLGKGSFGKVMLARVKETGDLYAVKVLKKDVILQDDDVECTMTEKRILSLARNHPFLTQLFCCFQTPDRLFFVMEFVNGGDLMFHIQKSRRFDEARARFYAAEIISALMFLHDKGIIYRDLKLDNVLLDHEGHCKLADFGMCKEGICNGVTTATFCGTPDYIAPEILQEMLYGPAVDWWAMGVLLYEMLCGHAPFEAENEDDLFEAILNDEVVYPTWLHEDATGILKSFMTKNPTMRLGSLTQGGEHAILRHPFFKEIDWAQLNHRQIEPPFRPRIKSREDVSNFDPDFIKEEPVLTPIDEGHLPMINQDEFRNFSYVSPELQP
Chain of MAP kinase-activated protein kinase 3 (Homo sapiens) (Q16644 whole entry, looked up, the tested form may be a part): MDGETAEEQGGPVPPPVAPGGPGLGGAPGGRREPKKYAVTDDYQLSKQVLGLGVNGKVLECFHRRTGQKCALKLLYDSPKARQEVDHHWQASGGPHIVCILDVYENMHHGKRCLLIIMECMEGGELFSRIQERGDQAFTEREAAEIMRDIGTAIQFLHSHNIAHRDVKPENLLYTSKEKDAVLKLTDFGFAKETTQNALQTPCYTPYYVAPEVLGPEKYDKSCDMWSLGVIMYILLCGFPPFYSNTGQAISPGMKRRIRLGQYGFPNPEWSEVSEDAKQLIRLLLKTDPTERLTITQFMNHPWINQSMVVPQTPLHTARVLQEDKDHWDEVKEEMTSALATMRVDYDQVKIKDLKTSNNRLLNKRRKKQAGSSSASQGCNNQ

Clc1ccc(C2(c3ccc(-c4ncnc5[nH]cnc45)cc3)CCNCC2)cc1
inhibition [1]: 35% | inhibition [2]: 36.5%

c1nc(N2CCOCC2)c2nc[nH]c2n1
inhibition [3]: 93%

C[C@H](CN(C)C)Oc1nc(Nc2cc3cccc(Cl)c3cn2)cnc1C#N
inhibition [4]: 27%

COC(=O)c1cnc(Nc2cnc(C#N)cn2)cc1NCC1CCNCC1
inhibition [5]: 7% | inhibition [6]: 1%

NCC1CCN(c2ncnc3[nH]ccc23)CC1
inhibition [7]: 13.5%

CNCc1ccc(-c2ncnc3[nH]cnc23)cc1
inhibition [8]: 38%
